Results published in patent US20260242822A1, “METHODS AND KITS FOR THE IMPROVED FERMENTATIVE PRODUCTION OF A RECOMBINANT VIRUS” (priority 2022, published 2026).

Columns and labels:
Adherent HEK293 cells [1] = experiment: rAAV yield in adherent HEK293 cells in T75 flasks, ddPCR; assay type: cell-based, human; conditions: supernatant, vs control condition (100%)
Protocol: (§1) Adherent HEK293 cell line (Agilent Technologies CAT #240073, Lot #0006218516) was cultivated in T75 flasks in a total volume of 23 mL with DMEM media containing 2% FCS. The cultivation of the cells was performed in an incubator at +37° C. and 5% CO2. 1 mM Ruxolitnib stock solution was prepared by dissolving the solid white powder in DMSO according to the manufacturer's instructions before use and stored at −20° C. During the last passage before transfection Ruxolitinib was added to the cell culture at defined concentrations. Every condition was tested in duplicates. At transfection day a confluence range of 60 to 80% was achieved.
(§2) The statistical mean of the control condition was calculated as 100%.

HEK293 cells [2] = experiment: rAAV yield in 10 L bioreactor fermentation of HEK293 cells, ddPCR; assay type: cell-based, human; conditions: supernatant
From the text: (§3) To test the effect of IFN inhibitor on the rAAV yield in large-scale bioreactor fermentation of HEK293 cells, 10 L bioreactors have been used. The results are shown in FIG. 3A (determination by capsid particlerAAV8 ELISA) and FIG. 3B (determination by ddPCR).

Adherent HEK293 cells [3] = experiment: rAAV yield in adherent HEK293 cells in T75 flasks, capsid particle AAV8 ELISA; assay type: cell-based, human; conditions: supernatant, vs control condition
Protocol: as §1, §2

suspension HEK293 (CL1) = experiment: Lentivirus production in suspension HEK293 (CL1) shake flasks, p24 ELISA; assay type: cell-based, human; conditions: vs untreated control (100%)
Protocol: Transient transfection of HEK293 to produce Lentivirus was performed with pALDI-Lenti system (Aldevron). […]. The transfection mix consisted of the four-plasmid system, DMEM media and PEI as transfection reagent. The ratio between the used plasmids was 1:1:1:1 and the plasmid DNA PEI ration was 1:3.
The ELISA quantifies structural HIV1 p24 capsid protein amount in cell culture and supernatant samples. It is a quantitative sandwich ELISA method. For titering lentiviral expression HIV1 p24 ELISA Kit ab218268 was used. To discriminate between viral p24 produced by lentivirus and associated p24 produced by HEK293 cells Cell Biolabs Quick Titer™ Kit including LV-Origine/TR30021/Lot #134641F and the Cell Biolabs Reference Standard #310809 was used. The virus pulldown technology ensures detection of lentiviral associated p24 only.
The suspension HEK293 (CL1) experiments with a four-plasmid lentiviral transfection were performed in shake flasks with the same conditions as shown in Table 2. The statistical mean of the control condition was evaluated as 100%.

HEK293 cells (CL1) [4] = experiment: rAAV8 yield in suspension HEK293 (CL1) shaker flasks, vector genome ddPCR
HEK293 cells [5] = experiment: rAAV yield in 10 L bioreactor fermentation of HEK293 cells, rAAV8 capsid particle ELISA; assay type: cell-based, human; conditions: supernatant, vs negative control without inhibitor
From the text: as §3

HEK293 cells (CL1) [6] = experiment: rAAV8 yield in suspension HEK293 (CL1) shaker flasks, capsid particle AAV8 ELISA
From the text: The commercially available enzyme-linked immunosorbent assay (ELISA; Progen AAV8 titration ELISA kit, cat. No. PRAAV8) uses a monoclonal antibody (ADK8) specific for a conformational epitope on assembled AAV8 capsids. This plate-immobilized antibody captures rAAV-8 particles from the specimen. Captured particles are then detected by the binding of biotinylated anti-AAV8 ADK8 since epitope targeted is repeatedly expressed on the assembled AAV8 capsid. Streptavidin peroxidase and a peroxidase substrate is then used for measuring bound anti-AAV8 and thus the concentration of AAV8 capsid. The color reaction was measured photometrically at 450 nm. The kit contains an rAAV2/8 particle preparation as calibration standard with a labelled rAAV8 particle concentration.

## N#CC[C@H](C1CCCC1)n1cc(-c2ncnc3[nH]ccc23)cn1 [Ruxolitinib, (3R)-3-cyclopentyl-3-[4-(7H-pyrrolo[2,3-d]pyrimidin-4-yl)pyrazol-1-yl]propanenitrile]
Adherent HEK293 cells [1]; 1 μM inhibitor
  vg yield increase (ddPCR): 48%
Adherent HEK293 cells [1]; 5 μM inhibitor
  vg yield increase (ddPCR): 38.5%
Adherent HEK293 cells [1]; 10 μM inhibitor
  vg yield increase (ddPCR): 31%
HEK293 cells [2]
  improvement of rAAV yield by ddPCR: approximately 1.3 fold
Adherent HEK293 cells [3]; 1 μM inhibitor
  capsid particle yield increase (ELISA): 49%
Adherent HEK293 cells [3]; 5 μM inhibitor
  capsid particle yield increase (ELISA): 66.5%
Adherent HEK293 cells [3]; 10 μM inhibitor
  capsid particle titer increase (ELISA): 62%
Suspension HEK293 (CL1); 5 μM inhibitor
  lentiviral cp titer increase (p24 ELISA): 40%
Suspension HEK293 (CL1); 10 μM inhibitor
  lentiviral cp titer increase (p24 ELISA): 81.5%
HEK293 cells (CL1) [4]; 5 μM ruxolitinib, cell suspension
  rAAV yield in the cell suspension: about 2×10^13 vg/L cell culture
HEK293 cells (CL1) [4]; 10 μM ruxolitinib, cell suspension
  rAAV yield in the cell suspension: about 2×10^13 vg/L cell culture
HEK293 cells (CL1) [4]; 10 μM ruxolitinib, cell suspension, vs negative control without inhibitor
  increase of the vector genome (vg) in the cell suspension: about 2 fold
HEK293 cells (CL1) [4]; 10 μM ruxolitinib, supernatant, vs negative control without inhibitor
  increase of the vector genome (vg) in the supernatant: about 2.5 fold
HEK293 cells [5]
  improvement of rAAV8 capsid particles by ELISA: about 1.5 fold
HEK293 cells (CL1) [6]; concentrations higher than 10 μM
  effect on rAAV yield at higher concentrations: reduction of the effect
HEK293 cells (CL1) [6]; optimal concentration 5 μM, vs yield in absence of inhibitor
  increase of rAAV yield as determined in cell suspension: about 3 fold
